TGI data for twelve molecules are collected here from PubChem BioAssay (NCI).

Among the test systems are SR leukemia; HCT-116 colon; OVCAR-3 ovarian; MALME-3M melanoma; SF-268 CNS; HCT-15 colon; SK-OV-3 ovarian; SF-295 CNS; OVCAR-8 ovarian; TK-10 renal; SN12C renal; A549 NSCLC; CCRF-CEM leukemia.
What all share (test): NCI anticancer screen, dose series, 48 h

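48-hour exposure; five concentrations; linearly interpolated endpoints. At the TGI there is no net growth.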

Consider `CCN(CC)C(=S)SS(=O)(=O)c1ccc(Cl)cc1`, for which the TGI with SR leukemia was 21.1 µM; with HCT-116 colon it was over 100 µM; in the test on OVCAR-3 ovarian, over 100 µM; with MALME-3M melanoma, 27.5 µM; in the test with SF-268 CNS, over 100 µM; in the test with HCT-15 colon, over 100 µM. Besides, the TGI with SK-OV-3 ovarian was over 100 µM; with SF-295 CNS, over 100 µM; with OVCAR-8 ovarian, 34 µM; with TK-10 renal it was over 100 µM; in the test with SN12C renal, 48.2 µM; in the test with A549 NSCLC it was over 100 µM.

Turning to `COc1cc(NC(C)=O)ccc1C(=O)NN1C(=O)C(Cl)C1c1ccco1` (stereo not drawn), the TGI in the test on SR leukemia, in the test on HCT-116 colon, with OVCAR-3 ovarian, in the test with CCRF-CEM leukemia, in the test on MALME-3M melanoma and with SF-268 CNS was over 100 µM in each case. Further, the TGI in the test with HCT-15 colon, in the test on OVCAR-8 ovarian, in the test on SN12C renal and with A549 NSCLC was over 100 µM in each case.

For `O=C(Nc1cc2c(=O)oc3ccccc3c2oc1=O)c1cccnc1`, the TGI in the test with SR leukemia, with HCT-116 colon, with OVCAR-3 ovarian, in the test on CCRF-CEM leukemia, in the test with MALME-3M melanoma and in the test on HCT-15 colon was over 100 µM throughout. The TGI in the test on SK-OV-3 ovarian, in the test with SF-295 CNS, in the test on OVCAR-8 ovarian, with TK-10 renal, with SN12C renal and with A549 NSCLC was over 100 µM each time.

On to `C/C1=C/C(C)CC(C)OC(=O)C(C)NC(=O)C(Cc2ccc(O)c(I)c2)N(C)C(=O)C(C)NC(=O)C(C)C1` (stereo not drawn), for which the TGI was 5.8 µM with SR leukemia; over 48.7 µM with HCT-116 colon; under 0.01 µM in the test with OVCAR-3 ovarian; 3.45 µM in the test on MALME-3M melanoma; 0.347 µM with SF-268 CNS; 12.1 µM in the test with HCT-15 colon. Further, the TGI is 1.25 µM in the test on SF-295 CNS; 17.9 µM with OVCAR-8 ovarian; 0.046 µM with TK-10 renal; over 89.2 µM in the test with SN12C renal; over 100 µM with A549 NSCLC.

On to `CCOC(=O)c1nc2ccccc2nc1Nc1ccc(OC)c(OC)c1`, for which the TGI in the test with SR leukemia, in the test on HCT-116 colon, with OVCAR-3 ovarian, in the test on CCRF-CEM leukemia, with MALME-3M melanoma and in the test on SF-268 CNS was over 100 µM in each case. Besides, the TGI with HCT-15 colon, in the test with SK-OV-3 ovarian, with SF-295 CNS, in the test on SN12C renal and in the test on A549 NSCLC was over 100 µM in each case.

Regarding `COC(C(=O)C(O)C(C)O)C1CC2C=C3C=C(OC4CC(OC5CC(O)C(OC)C(C)O5)C(OC(C)=O)C(C)O4)C(C)C(=O)C3=C(O)C2=C(O)C1OC1CC(OC2CC(OC3CC(C)(O)C(OC(=O)C(C)C)C(C)O3)C(O)C(C)O2)C(O)C(C)O1` (stereo not drawn), the TGI was under 0.01 µM in the test with SR leukemia; over 100 µM in the test with HCT-116 colon; under 0.01 µM with MALME-3M melanoma; under 0.01 µM in the test with SF-268 CNS; over 100 µM with SK-OV-3 ovarian; under 0.01 µM with OVCAR-8 ovarian. The TGI was over 100 µM with TK-10 renal and under 0.01 µM with SN12C renal.

Turning to `O=C(N/N=C/c1ccc([N+](=O)[O-])o1)c1ccc(C(=O)N/N=C/c2ccc([N+](=O)[O-])o2)cc1`, the TGI in the test with SR leukemia is over 100 µM; with HCT-116 colon, over 100 µM; in the test on OVCAR-3 ovarian it was 73.9 µM; in the test with CCRF-CEM leukemia it was 42.4 µM; in the test with MALME-3M melanoma it was 48.7 µM; with SF-268 CNS, over 100 µM. Further, the TGI is over 100 µM in the test with HCT-15 colon; over 100 µM in the test on SK-OV-3 ovarian; over 100 µM in the test on SF-295 CNS; 77.9 µM in the test with OVCAR-8 ovarian; over 100 µM in the test with SN12C renal; over 100 µM in the test with A549 NSCLC.

In the case of `O=C(NNC(c1ccccc1)C(F)(F)F)c1ccncc1` (stereo not drawn), the TGI with SR leukemia, in the test with HCT-116 colon, in the test with CCRF-CEM leukemia, with MALME-3M melanoma, with SF-268 CNS and in the test with HCT-15 colon was over 100 µM throughout. The TGI with SF-295 CNS, in the test with OVCAR-8 ovarian, in the test on TK-10 renal, with SN12C renal and with A549 NSCLC was over 100 µM in each case.

For the molecule `c1ccc(P(CCP(c2ccccn2)c2ccccn2)c2ccccc2)cc1`, the TGI in the test on SR leukemia is over 100 µM; in the test on HCT-116 colon, over 100 µM; with MALME-3M melanoma, over 100 µM; in the test on HCT-15 colon, over 100 µM; in the test with SK-OV-3 ovarian, over 100 µM; in the test on SF-295 CNS, over 56.6 µM. Besides, the TGI in the test on OVCAR-8 ovarian, in the test on TK-10 renal, with SN12C renal and in the test on A549 NSCLC was over 100 µM throughout.

Regarding `CS(=O)(=O)c1c(N)c2nc(Cl)cn2c2nc3ccccc3nc12`, the TGI in the test with SR leukemia, in the test with HCT-116 colon, in the test with OVCAR-3 ovarian, in the test on CCRF-CEM leukemia, in the test with MALME-3M melanoma and in the test with SF-268 CNS was over 100 µM throughout. The TGI in the test on HCT-15 colon, with SK-OV-3 ovarian, with SF-295 CNS, with OVCAR-8 ovarian, with SN12C renal and in the test with A549 NSCLC was over 100 µM each time.

As for `CCCCOC(=O)NC(Nc1cccc(C(F)(F)F)c1)(C(F)(F)F)C(F)(F)F`, the TGI with SR leukemia was 60.4 µM; in the test on HCT-116 colon it was over 100 µM; with OVCAR-3 ovarian, over 100 µM; in the test with CCRF-CEM leukemia it was over 100 µM; in the test with MALME-3M melanoma, over 100 µM; in the test with SF-268 CNS, over 100 µM. The TGI in the test with HCT-15 colon, in the test on SF-295 CNS, with OVCAR-8 ovarian, in the test with TK-10 renal, in the test with SN12C renal and in the test on A549 NSCLC was over 100 µM in each case.

As for `C=C(C)C1CC/C(C)=C/CC[C@]2(C)O[C@H]2CC/C(COC(C)=O)=C\[C@@H]1O` (stereo partly drawn), the TGI with SR leukemia, in the test on HCT-116 colon, with OVCAR-3 ovarian, with CCRF-CEM leukemia, in the test with SF-268 CNS and with HCT-15 colon was over 50 µM each time. Besides, the TGI with SK-OV-3 ovarian, with SF-295 CNS, with OVCAR-8 ovarian, in the test on TK-10 renal, in the test on SN12C renal and in the test on A549 NSCLC was over 50 µM in each case.
